In this experiment the test system is CEM cells HIV-1 protection, formazan growth assay. Briefly: NCI AIDS Antiviral Assay. The conditions noted are these: for IC50: measured here: growth of uninfected CEM cells. In outline:
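Category rules: moderately active means at least 50% protection on retest, and confirmed active means 100% protection reproducibly. The underlying data came from a formazan growth assay in HIV-1-infected CEM cells.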

The structures appear in SMILES notation. Where “and” joins values, the source holds several entries; their conditions need not be identical. Equal entries are not always repeated. Calls of active or inactive are those of the source.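 How the source made its calls: active means compounds giving half or more protection of infected cells from virus-caused growth loss, again on retest; inactive means the rest.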

Usually EC50 stands for the concentration needed to bring the measured effect to its halfway point. By IC50 is commonly meant the concentration needed to halve the response being measured. Low readings indicate greater potency in that assay, high ones weaker potency in that assay. On to `CCC(=O)C1(c2cccc(OC)c2)CCN(C)CC1`, for which the EC50 was over 832 µM and the concentration for half-maximal inhibition (IC50) came to 457 µM.

With `O=[N+]([O-])c1ccc(N=Nc2ccc(N=C=S)cc2)cc1`, the EC50 is over 200 µM and the IC50 turned out to be 110 µM. As to `CCC1OC(=O)[C@H](C)C(OC2CC(C)(OC)C(O)C(C)O2)C(C)C(OC2OC(C)CC(N(C)C)C2O)[C@](C)(O)CC(C)CN(C)[C@H](C)[C@@H](O)[C@]1(C)O` (stereo partly specified), the EC50 is over 200 µM and the concentration for half-maximal inhibition (IC50) came out at 132 µM.

For the compound `Nc1nc(Cl)c(N=Nc2ccc(Cl)cc2)c(NCC2(CO)CC(OCc3ccccc3)C2)n1` (stereo unspecified), the EC50 was over 20 µM and the 50% inhibitory concentration (IC50) is 14.5 µM. Regarding `COc1cc2cnc3c4cc(OCc5ccccc5)ccc4ccc3c2cc1OC`, the EC50 was over 6.61 µM and the half-inhibitory concentration (IC50) was over 6.61 µM. As for `COc1ccc2c(c1)c1c(n2CCN2CCCCC2)-c2cccc(OC)c2CC1`, the EC50 is over 200 µM and the IC50 was found to be 11.2 µM.

For `C/C(=N/NC(=O)c1ccccc1O)c1ccc(/C(C)=N\NC(=O)c2ccccc2O)c2nc3cc(C)c(C)cc3nc12`, the EC50 was over 64.6 µM and the IC50 is over 64.6 µM. Turning to `N#Cc1c(N)c(C(=O)Nc2ccccc2)n2c1CCCC2`, the EC50 was over 200 µM and the IC50 was over 200 µM. `COc1ccc(-c2cc(-c3ccccc3)nc(N)c2-c2ccc3ccccc3c2)cc1`: the EC50 was over 200 µM and the half-inhibitory concentration (IC50) stood at 2.45 µM. As to `CC(=O)c1c2c(cc3c1CC1(Cc4cc5c(cc4C1=O)CCC5)C3)CCC2` (stereo unspecified), the EC50 was over 200 µM and the IC50 was 13.5 µM.

Regarding `CC(C)(C)C1CCC2c3c([nH]c4ccccc34)C3C(=O)N(c4cc(Cl)ccc4Cl)C(=O)C3C2C1` (stereo unspecified), the EC50 is over 200 µM and the half-maximal inhibitory concentration (IC50) came to 19.1 µM. For the compound `CCOC(=O)c1c(-c2ccc(O)c(OC)c2)c(C#N)c(=S)n(C2OC(COC(C)=O)C(OC(C)=O)C(OC(C)=O)C2OC(C)=O)c1-c1ccccc1` (stereo unspecified), the EC50 is over 200 µM; the concentration for half-maximal inhibition (IC50) was 91.2 µM and 64.6 µM. Turning to `CCN(CC)CCCN1CCc2c([nH]c3ccccc23)C1c1cccnc1` (stereo unspecified), the EC50 is over 186 µM and the half-inhibitory concentration (IC50) is over 186 µM.

As for `O=C(COc1ccc(OCC(=O)N2C(=O)CSC2=Nc2ccccc2)cc1)N1C(=O)CSC1=Nc1ccccc1`, the EC50 is over 200 µM and the concentration for half-maximal inhibition (IC50) is 25.7 µM. As to `Cc1ccc2ccc3c(-c4ccccc4)cc(C)nc3c2n1`, the EC50 is over 20 µM and the IC50 is 3.31 µM. As to `NC(=O)Cc1nc2c(N)ncnc2n1C1OC(CO)C(O)C1O` (stereo unspecified), the EC50 is over 200 µM and the IC50 is over 200 µM. Take `CCN(CC)CC1CN=C(N)O1` (stereo unspecified): the EC50 is over 200 µM and the IC50 is over 200 µM. On to `COc1ccc2c(c1)CCN=C2Cc1cc(OC)c(OC)cc1CCCl`, for which the EC50 was over 200 µM and the half-inhibitory concentration (IC50) worked out at 53.7 µM. For `N#C/C(N)=C(\C#N)N=CN`, in that order: over 200 µM and over 200 µM. The corresponding values for `CP1CCC(O)(c2ccccc2)CC1` (stereo unspecified) are over 200 µM and over 200 µM. As for `Cc1ccc(S(=O)(=O)/N=S(\C)c2ccc(Cl)cc2)cc1` (stereo unspecified), the EC50 is over 759 µM and the IC50 worked out at 178 µM.

In the case of `CN1CN(c2ccccc2)C2(CCN(C(=O)OC(C)(C)C)CC2)C1=O`, the EC50 was over 100 µM and the IC50 was over 100 µM. As to `CN(/N=C/c1cccc2cccnc12)c1ccc([N+](=O)[O-])cc1`, the result was inactive.

Consider `C[CH2][Ge]([CH2]C)([CH2]C)[O]C(=O)CCC(=O)[O][Ge]([CH2]C)([CH2]C)[CH2]C`, for which the EC50 is over 214 µM and the IC50 is over 214 µM. On to `CCc1ccccc1C1(Br)C(=O)c2ccccc2C1=O`, for which the EC50 was over 200 µM and the IC50 was 45.7 µM. With `O=C1NC2CSC(CCCCC(=O)ON3C(=O)CCC3=O)C2N1` (stereo unspecified), the EC50 was over 741 µM and the half-maximal inhibitory concentration (IC50) was 123 µM. Regarding `CCn1c2ccccc2c2ccc(C3C(C(=O)OC)=C(C)NC(C)=C3C(=O)OC)cc21`, the result was inactive. Regarding `CC(=O)CC(C)(C)S(=O)(=O)O`, the EC50 was over 200 µM and the half-inhibitory concentration (IC50) was over 200 µM. In the case of `CCCCC(O)(c1ccccc1)C(O)(c1ccccc1)c1c(F)c(F)c(F)c(F)c1F` (stereo unspecified), the EC50 is over 200 µM and the concentration for half-maximal inhibition (IC50) was found to be 39.8 µM.

As for `O=C1/C(=C/c2ccc([N+](=O)[O-])cc2)CCCc2ccccc21`, the EC50 is over 141 µM and the IC50 is over 141 µM. As for `COc1ccccc1NC(=O)C(=O)C1C(=O)Nc2ccccc2S1=O` (stereo unspecified), the outcome was inactive.

Regarding `C/C(O)=C/c1nc2sc(C)c(C)c2c(=O)s1`, the EC50 was over 200 µM and the half-inhibitory concentration (IC50) was 39.8 µM. Regarding `C[C@H]1CCC2C(CN3CCCCC3)C(=O)OC2[C@]2(C)C(=O)CC(N3CCCCC3)C12O` (stereo partly specified), the outcome was inactive. With `COc1ccc(/C=C2\c3cc(OC)c(OC)cc3CCN2C(=O)c2ccccc2)cc1OC`, the EC50 was over 200 µM and the concentration for half-maximal inhibition (IC50) was determined as 57.5 µM. As to `Cc1ccc(C2CC(c3ccco3)=NN2c2ccccc2)o1` (stereo unspecified), the EC50 is over 17.8 µM and the IC50 was over 17.8 µM.

With `Cc1ccc(S(=O)(=O)NCCSCCSCCNS(=O)(=O)c2ccc(C)cc2)cc1`, the EC50 was over 38.9 µM and the half-inhibitory concentration (IC50) was over 38.9 µM. As for `c1csc(-c2cscc2-c2cccs2)c1`, the EC50 was over 200 µM and the half-inhibitory concentration (IC50) was determined as 37.2 µM. For the compound `COc1ccc(Nc2nc3c(s2)c(C)c(O)c2ccccc23)cc1`, the concentration giving a half-maximal response (EC50) is over 2.88 µM and the IC50 came out at 0.851 µM. With `CCOC(=O)CCC(NC(=O)N1CCN(c2c(C)nc(C)[nH]c2=O)CC1)C(=O)OCC` (stereo unspecified), the EC50 is over 200 µM and the IC50 is over 200 µM. In the case of `CC(=O)c1ccc(C(O)C(CO)NC(=O)C(Cl)Cl)cc1` (stereo unspecified), the EC50 is over 200 µM and the IC50 was over 200 µM.

Take `O=c1c2c(no[n+]2[O-])c2ccccc2n1-c1ccccc1`: the EC50 is over 200 µM and the IC50 was 1.95 µM.

`CCC[CH2][Sn]([CH2]CCC)([O]C(=O)c1cccnc1SC)[O]C(=O)c1cccnc1SC`: the EC50 was over 12.6 µM and the IC50 came to 9.12 µM. Turning to `O=S(=O)(Nc1ncccn1)c1ccc(N=NSC2=NC=NC3=NC=NC32)cc1` (stereo unspecified), the EC50 is over 200 µM and the IC50 turned out to be 5.25 µM. Regarding `COCn1cnc2c(=O)n(-c3ccc(OC)cc3)c(=S)n(-c3ccc(OC)cc3)c21`, the EC50 was over 200 µM and the 50% inhibitory concentration (IC50) was over 200 µM. Consider `C/C=C/C=Nc1c(C#N)c2n(c1C(=O)Nc1ccc(S(N)(=O)=O)cc1)CCC2`, for which the EC50 is over 200 µM and the IC50 is 11 µM. In the case of `Cn1c(=Nc2ccccc2[N+](=O)[O-])sc2ccccc21`, the EC50 was over 200 µM and the IC50 was over 100 µM. For the compound `O=C1CCCCC1C(O)(C(F)(F)F)C(F)(F)Cl` (stereo unspecified), the EC50 was over 200 µM and the IC50 is 85.1 µM. Regarding `C/C(=N\NC(N)=S)c1ccc2c(c1)OCO2`, the outcome was inactive. As to `CN(C)c1nc(=Nc2ccc3ccccc3c2)ss1`, the result was inactive. Turning to `CC(=O)OCC(OC(C)=O)C(OC(C)=O)C(OC(C)=O)C(=O)CNn1c(-c2ccccc2Cl)nc2ccc(Br)cc2c1=O` (stereo unspecified), the result was inactive. Turning to `CC(=O)NNc1nc(C)c(C(/C=C/c2ccc(NC(C)=O)cc2)=N/NS(=O)(=O)c2ccc(C)cc2)s1`, the EC50 is over 57.5 µM and the IC50 was over 57.5 µM.

`CCOC(=O)Cn1c(=O)c2nc(SC)sc2n(-c2ccccc2)c1=O`: the EC50 was over 200 µM and the IC50 was over 200 µM. `N/N=C(\CCN1CCCC1)CC(c1ccccc1)c1c(O)c2ccccc2oc1=O` (stereo unspecified): the EC50 is over 58.9 µM and the half-maximal inhibitory concentration (IC50) is over 58.9 µM. Turning to `O=C1Nc2ccccc2Sc2ccccc21`, the EC50 was 93.3 µM and the IC50 was found to be 115 µM. Turning to `COc1cc(CNC(=O)CCCCCCCCCCSSCCCCCCCCCCC(=O)NCc2ccc(O)c(OC)c2)ccc1O`, the EC50 was over 200 µM.

Turning to `COc1cc2c(c(C)c1O)[C@H]1COc3ccccc3[C@H]1O2`, the EC50 was over 87.1 µM and the half-maximal inhibitory concentration (IC50) came out at 15.8 µM. The corresponding values for `CCC12CCCN(Cc3ccccc3)C1c1c([nH]c3ccccc13)C(CO)C2` (stereo unspecified) are over 26.3 µM and over 26.3 µM. On to `O=C1OC(c2ccccc2)N(C(=O)c2ccccc2)C1Cc1ccc(OCc2ccccc2)cc1` (stereo unspecified), for which the EC50 was over 200 µM and the half-inhibitory concentration (IC50) worked out at 85.1 µM. Consider `CCC[CH2][Sn]1([CH2]CCC)[O]CC(CN2CCCC2)[O]1` (stereo unspecified), for which the EC50 is over 34.7 µM. Turning to `O=C(c1cccs1)N(C(=O)N1CCC(c2ccccc2)CC1)c1ccccc1`, the EC50 was over 200 µM and the IC50 was over 200 µM.

In the case of `O=C(O)CCSC(=O)Nc1cccc(F)c1`, the outcome was inactive. Consider `COc1cc(N(C)C)ccc1/C=C\c1ccnc2ccccc12`, for which the EC50 was over 200 µM and the 50% inhibitory concentration (IC50) came to 13.5 µM.

With `O=c1c(SCc2ccc(Cl)cc2)c(SCc2ccc(Cl)cc2)cnn1-c1ccccc1`, the EC50 was over 14.8 µM and the IC50 amounted to 3.98 µM. Regarding `NC(CCCCNCC(N)C(=O)O)C(=O)O` (stereo unspecified), the EC50 is over 933 µM and the 50% inhibitory concentration (IC50) was over 933 µM. On to `OC[C@H]1CC(c2nn[nH]n2)[C@H](O)[C@@H]1O` (stereo partly specified), for which the EC50 is over 200 µM and the half-inhibitory concentration (IC50) was over 200 µM. Consider `CC(=O)N1c2ccccc2Sc2cc(C(O)(C(F)(F)F)C(F)(F)F)ccc21`, for which the EC50 was over 200 µM and the IC50 is 13.5 µM. As to `ClC1=NN=C(c2c[nH]c3ccccc23)CC1NCc1ccccc1` (stereo unspecified), the EC50 was over 200 µM and the IC50 is over 200 µM. For `CN(C)Cc1c[nH]c2c1S/C(=C/c1ccccc1)C2=O`, the EC50 was over 178 µM and the IC50 stood at 16.6 µM.

As for `N#CC(C#N)=Cc1ccc(F)cc1`, the EC50 is over 79.4 µM and the IC50 is over 79.4 µM. `O=S(=O)(O)SCNCNCCSCc1ccccc1`: the EC50 is over 138 µM and the 50% inhibitory concentration (IC50) worked out at 45.7 µM. In the case of `O=C(c1ccc(S(=O)(=O)c2ccccc2)cc1)c1ccc(S(=O)(=O)c2ccccc2)cc1`, the EC50 was over 200 µM and the IC50 was over 200 µM.

As for `Cc1cn(COCCCOCC(=O)c2ccccc2)c(=O)[nH]c1=O`, the EC50 is 93.3 µM and the concentration for half-maximal inhibition (IC50) is over 200 µM. Consider `CC1=CC(=O)/C(=C/N2CCNC2=S)C(=O)O1`, for which the EC50 was over 200 µM and the half-maximal inhibitory concentration (IC50) was over 200 µM.

Source of the values: PubChem BioAssay AID179 (DTP/NCI, 2004).
